From patent EP0398925B1, “GROWTH INHIBITING AGENT AND THE USE THEREOF” (CHILDREN'S HOSPITAL CORPORATION, priority 1988, dated 1989)

Tests used:
[1] = system: chorioallantoic membrane of the chick embryo; experiment: CAM assay: avascular zone around a methylcellulose disc holding the test substance; format: in vivo; conditions: for angiogenesis-inhibition: 100 µg of cyclodextrin with 50 µg of hydrocortisone, no successes at (+) or (++) level; for angiogenesis suppression activity: unmodified CDs with hydrocortisone (Examples 18-20)
Text: A more economic bioassay makes use of the chorioallantoic membrane of the chick embryo. This test will for convenience be referred to hereinafter as the "CAM assay". For a more detailed description of the CAM assay, see Folkman et al., Science 221:719 (1983). A typical CAM assay, such as used for the evaluations in the examples in Section 7, infra, employs 16 eggs per experiment. A 2 mm diameter disk of methylcellulose containing the test substance is applied to the chorioallantoic membrane of a 6-day chick embryo, cultured in a Petri dish, in a humidified incubator with 3% carbon dioxide. Two days later (8-day embryo), the membrane is examined under a stereomicroscope at six- to ten-fold magnification. Inhibition of angiogenesis by the test substance is evidenced by the development of an avascular zone around the methylcellulose disc. An avascular zone of 4 mm is graded as (++) and an avascular zone of 2 mm is graded as (+). […] A rating of zero % reflects absence of inhibition or the test substance under the test conditions.
The sustained release methylcellulose discs are prepared by dispersing appropriate amount(s) of the test substance of substances in an 0.45% aqueous solution of methylcellulose, and depositing 10 microliter aliquots of the resulting solution in a Teflon mold, followed by air drying for about one hour in a laminar flow hood.

[2] = system: rabbit cornea; experiment: Rabbit cornea test, endotoxin Elvax implant, test substance given in a second Elvax implant; format: in vivo; conditions: day 13, Elvax pellet with β-CD-TDS 15 µg/mm³ and/or cortexolone 30 µg/mm³, over 100% = stimulation; for Vessel Density, Inhibition (% of Untreated Control Group): length-density index
Method: In another series of experiments, the antiangiogenic activity of a water-soluble cyclodextrin salt derivative in combination with cortexolone was evaluated using the rabbit cornea test as described by Gimbrone et al., J. Nat'l Cancer Inst. 52:413 (1974). In these experiments, E. coli endotoxin (17 µg/mm³) incorporated into sustained release polymer pellets of ethylene vinylacetate copolymer [Elvax, Sigma Chemical, St. Louis, MO (hereinafter "Elvax")] was implanted between the vascular limbal edge of the rabbit corneas. The test substance(s) were administered by means of a second Elvax implant incorporating the particular test substance.
Elvax containing endotoxin was implanted into the corneas of 12 rabbits. The animals were then divided into 4 groups and 4 eyes were treated for each group as follows: Group 1, received no further treatment and served as the control group; Group 2, β-CD-TDS at 15 µg/mm³ Elvax pellet; Group 3, cortexolone at 30 µg/mm³ Elvax pellet; and Group 4, a combination of β-CD-TDS and cortexolone incorporated into an Elvax pellat at a final concentration of 15 µg/mm³ Elvax of β-CD-TDS and 30 µg/mm³ Elvax of cortexolone. The vessel length of new capillary growth was measured every 2 days with a slit-lamp stereoscope at 10X using an ocular grid calibrated to ± 0.1 mm.
Thus, the vessel density was also evaluated and graded using the following scale: O=no vessels/cornea; 1=1-4 vessels/cornea; 2=5-20 vessels/cornea; 3=20-50 vessels/cornea; and 4=more than 50 vessels/cornea. This grade was then multiplied by mean maximal length of the vessels to obtain a semi-quantitative estimate of vessel density (length-density index) for each cornea.

[3] = Solubility in liquid water at zero °C; format: physicochemical
Text: The CD derivatives useful in the present invention are highly hydrophilic and therefore very water soluble. Without wishing to be bound by theory, we believe that a highly hydrophilic character is important to allow interaction with cellular surfaces. We also believe a very high water solubility of the derivative is an important factor which cooperatively interacts with the inherent complexing ability of the CD structure to provide effective inhibition of angiogenesis with an exogenous steroid, as provided by this invention. We believe that the hydrophlilic activity is roughly indicated by the affinity to water, as measured by water solubility. It is important to measure the same at 0°C since at higher temperatures the most suitable derivative have solubilities so high that meaningful measurements are difficult. […] All solubility measurements referred to herein relate to the solubility of the substantially anhydrous derivatives, and when these are salts, to the anhydrous sodium form. […] In order to make comparisons that included the very water-soluble CD sulfates, the solubilities of which were so high at room temperature that measurement was not practical, all solubility measurements were made in liquid water at zero °C. One can picture this to be a measure of the competition of the hydrophile bonding with water in relation to the orderly bonding of water to itself.

[4] = system: rat aortic SMC; experiment: Suppression of smooth muscle cell growth in tissue culture; format: cell-based; conditions: each used alone, 0.03 µg/ml up to 400 µg/ml
Method: (§1) The bioassay of this activity was made using tissue cultures of rat aortic SMC and calf aortic SMC, with dosages ranging from 0.03 µg/ml up to 400 µg/ml.

[5] = system: calf aortic SMC; experiment: as above; format: cell-based; conditions: each used alone, 0.03 µg/ml up to 400 µg/ml
Method: as §1

[6] = system: rabbit cornea; experiment: Rabbit corneal test, endotoxin implant, test substance applied topically as eye drops; format: in vivo; conditions: eye drops in saline; 9th day; hydrocortisone 0.5 mg/ml, β-CD-TDS 1.0 mg/ml (combination uses hydrocortisone-21-phosphate)
Text: The rabbit corneal test described by Perlin, Fed. Proc. 36:101 (1977) modified as described below, was employed to examine the effectiveness of a combination of β-CD-TDS and hydrocortisone In this corneal test, a sustained release polymer impregnated with bacterial endotoxin was first implanted in rabbit corneas. Endotoxin slowly released from this implant induces angiogenesis in the cornea in a manner analogous to the neovascularization observed in patients rejecting a corneal transplant. Rather than employing a second implant containing the test substance to deliver such test substance as generally used, in the present experiments the test substance was applied topically to the cornea, i.e., in the form of eye drops. Animals having received an endotoxin-containing implant were divided into four groups and were treated by topical application (eye drops) as follows: Group 1, was not treated further and served as the control group; Group 2, received hydrocortisone alone (0.5 mg/ml); Group 3, hydrocortisone-21-phosphate and β-CD-TDS, (0.5 mg/ml and 1.0 mg/ml, respectively); and Group 4, β-CD-TDS (1.0 mg/ml). The diluent for the eye drops was saline in all cases. FIG. 3 (A-D) illustrates the results typically obtained on the 9th day post-implantation and treatment.

[7] = 25 µg/10 µl of β-CD-TDS with Cortexolone 50 µl/10 µl
[8] = compound 25 µg/10 µl with 50 µg to 60 µg of hydrocortisone in 10 µl of 0.45% methylcellulose
[9] = compound 100 µg/10 µl with 50 µg to 60 µg of hydrocortisone in 10 µl of 0.45% methylcellulose

For `C[C@]12CCC(=O)C=C1CC[C@@H]1[C@@H]2CC[C@@]2(C)[C@H]1CC[C@]2(O)C(=O)CO` [Cortexolone, 17 alpha, 21-dihydroxypregn-4-ene-3,20-dione], the “% Avascular zones” value ([1]; Cortexolone alone, 50 µl/10 µl) was “zero”, the “Vessel Length, Inhibition (% of Untreated Control Group)” value [2] was 49% and the “Vessel Length, Inhibition (% of Untreated Control Group)” value ([2]; listed as cortexolone) was “about 49%”. For the same compound, the “Vessel Density, Inhibition (% of Untreated Control Group)” value [2] was 61% and the “Vessel Density, Inhibition (% of Untreated Control Group)” value ([2]; listed as cortexolone) was “about 61%”.

With “β-cyclodextrin tetradeca sulfate [β-CD-TDS]” the “% Avascular zones” value [1, 7] was 85%, the “% avascular zones (++) or greater” value [1, 7] was 31% and the “% Avascular zones” value [1, 8] was 58± 7.0%. The “% Avascular zones” value ([1]; compound 50 µg/10 µl with 50 µg to 60 µg of hydrocortisone in 10 µl of 0.45% methylcellulose) was 75± 5.8%, the “% Avascular zones” value [1, 9] was 55± 7.5% and the “Solubility 0°C, g/100 ml H₂O” value [3] was 42 g/100 ml H₂O. The “effectiveness relative to whole heparin in suppressing smooth muscle cell (SMC) growth” value [4] was “about three”, the “effectiveness relative to whole heparin in suppressing smooth muscle cell (SMC) growth” value [5] was “about three” and the “effect on endotoxin-induced angiogenesis in the cornea” value [6] was “slight stimulation of angiogenesis”.

In the case of `O=C(O)[C@@H]1CCN1` [(a) L-2-Azetidine, L-2-azetidinecarboxylic acid], the “% Avascular zones” value ([1]; L-2-Azetidine 400 ug/10 µl, (a) 0 µg CD-TDS, (b) 25 µg CD-TDS) is reported as 28%.

For α-cyclodextrin [α-CD], the angiogenesis-inhibition [1] was “total absence of angiogenesis-inhibition”, the “% Avascular zones” value [1, 8] was 0% and the “% Avascular zones” value [1, 9] was 5± 0.3%. The angiogenesis suppression activity [1] was “no indication of angiogenesis suppression activity” and the “Solubility 0°C, g/100 ml H₂O” value [3] was 6 g/100 ml H₂O.

With `C[C@]12CCC(=O)C=C1CC[C@@H]1[C@@H]2[C@@H](O)C[C@@]2(C)[C@H]1CC[C@]2(O)C(=O)CO` [hydrocortisone, 11 beta, 17 alpha, 21-trihydroxypregn-4-ene-3,20-dione] the “effect on endotoxin-induced angiogenesis in the cornea” value [6] was “only a slight inhibition of angiogenesis”.

With γ-cyclodextrin [γ-CD] the angiogenesis-inhibition [1] was “total absence of angiogenesis-inhibition”, the “% Avascular zones” value [1, 9] was 0% and the angiogenesis suppression activity [1] was “no indication of angiogenesis suppression activity”.

With `OC[C@H]1O[C@@H]2O[C@H]3[C@H](O)[C@@H](O)[C@@H](O[C@H]4[C@H](O)[C@@H](O)[C@@H](O[C@H]5[C@H](O)[C@@H](O)[C@@H](O[C@H]6[C@H](O)[C@@H](O)[C@@H](O[C@H]7[C@H](O)[C@@H](O)[C@@H](O[C@H]8[C@H](O)[C@@H](O)[C@@H](O[C@H]1[C@H](O)[C@H]2O)O[C@@H]8CO)O[C@@H]7CO)O[C@@H]6CO)O[C@@H]5CO)O[C@@H]4CO)O[C@@H]3CO` [β-CD, β-cyclodextrin] the angiogenesis-inhibition [1] was “total absence of angiogenesis-inhibition”, the “% Avascular zones” value [1, 8] was 0.04% and the “% Avascular zones” value [1, 9] was 0%. For the same compound, the angiogenesis suppression activity [1] was “no indication of angiogenesis suppression activity”.
